# Data as given in patent publication US5061690A, “Method for increasing milk production in mammals and/or increasing the birth weight of their newborn and improving postnatal growth” (Institut National de la Recherche Agronomique, priority 1987, dated 1991).
# “Also recorded” adds a separate entry of the source. Read-outs that look alike come from different tables or passages of the source.
# What was measured:
# multiparous gravid ewes [1] = assay: hGRF (1-29) on completion of two-thirds and/or at end of gestation in ewes: milk production; assay type: in vivo
# Method: 48 multiparous gravid ewes were distributed in four batches of 12 ewes each, account being taken of the earlier milk productions and of the anticipated parity (OCS--Ovine Chorionic Somatotropin--assay). The first batch forms the control batch, the ewes receiving no treatment. The other three batches receive 1.5 mg of hGRF (1-29) subcutaneously twice daily; from day 105 to day 115 of gestation for the second batch, which will be designated hereinafter as batch "GRF1"; from day 137 of gestation to littering for the third batch, which will be designated hereinafter as batch "GRF2"; and from day 105 to day 115 of gestation and from day 137 of gestation to littering for the fourth batch, which will be designated hereinafter as batch "GRF1+2". As in the above study, the administration of hGRF (1-29) is stopped as soon as parturition takes place, and lambing is induced by the administration of dexamethasone on day 145 of gestation, under the conditions described above. After parturition, the milk production of the ewes was measured twice daily, and the growth of the lambs, which received an artificial milk-feed supplied "ad libitum", was followed, the lambs receiving no growth adjuvant treatment. After a variance analysis, taking the earlier production as covariable, and after correction taking into account the parity (number of lambs per pregnancy) during the lactation in progress and during the reference lactation, the results for the milk production were compared between the control batches and batches "GRF1" and "GRF2". From the results obtained over five weeks of lactation, the curves of FIGS. 4 and 5 were plotted, the source data being reported in Table 2 below.
# multiparous gravid ewes [2] = assay: hGRF (1-29) on completion of two-thirds and/or at end of gestation in ewes: birth weight and growth of lambs; assay type: in vivo; conditions: for Weight of the Lambs at 30 days: control 12.12 ± 0.7 kg
# Method: 48 multiparous gravid ewes were distributed in four batches of 12 ewes each, account being taken of the earlier milk productions and of the anticipated parity (OCS--Ovine Chorionic Somatotropin--assay). The first batch forms the control batch, the ewes receiving no treatment. The other three batches receive 1.5 mg of hGRF (1-29) subcutaneously twice daily; from day 105 to day 115 of gestation for the second batch, which will be designated hereinafter as batch "GRF1"; from day 137 of gestation to littering for the third batch, which will be designated hereinafter as batch "GRF2"; and from day 105 to day 115 of gestation and from day 137 of gestation to littering for the fourth batch, which will be designated hereinafter as batch "GRF1+2". As in the above study, the administration of hGRF (1-29) is stopped as soon as parturition takes place, and lambing is induced by the administration of dexamethasone on day 145 of gestation, under the conditions described above. After parturition, the milk production of the ewes was measured twice daily, and the growth of the lambs, which received an artificial milk-feed supplied "ad libitum", was followed, the lambs receiving no growth adjuvant treatment. The analysis concerned only twin lambs, distributed as follows: At the age of 30 days, after variance analysis taking birth weight as covariable, a larger growth of all the lambs born of the mothers of batch GRF2 was observed. This is shown in FIG. 3, which is an illustration similar to that of FIG. 4, enabling the weights of the lambs born of the mothers of the four batches to be compared at the age of 30 days. Table 1 below complements this FIG. 3.
# gravid ewes [3] = assay type: in vivo
# Method: (§1) 30 gravid ewes which were at the 135th day of gestation were distributed in two batches of 15 ewes each, account being taken of the number of fetuses assumed to be present in the uteri and of the earlier milk outputs, all the ewes being multiparous. Batch A, which receives no treatment, serves as control batch. Batch B receives 1.5 mg of hGRF (1-29) (equivalent to approximately 20 μg per kg of body weight) subcutaneously twice daily, at 8.00 hours and 14.00 hours, from day 137 of gestation up to the day of littering (which varied between day 145 and day 147, depending on the ewe). The administration of hGRF (1-29) is stopped as soon as parturition takes place. In all the animals, lambing is induced by the administration of 9 α-fluoro-11β,17α,21-trihydroxy-16α-methyl-1,4-pregnadiene-3,20-dione (proposed under the INN of dexamethasone) on the basis of 16 mg intramuscularly at 20.00 hours on day 144 of gestation. The birth weights of the lambs born of mothers of the two batches A and B were compared.
# gravid ewes [4] = assay: OGH (growth hormone) assay in gravid ewes given hGRF (1-29) at the end of gestation; assay type: in vivo; conditions: batch B
# Method: as §1, with “[…] This discharge is the same in nature after the morning injection and after that” for “The birth weights”, “afternoon. […] This is shown in FIG. 1” for “lambs born of mothers”, “attached drawings, which represents the OGH hormone assay in terms of the time of day (mean over 15 ewes) on day 138” for “two batches A”, “on day 146 of gestation.” for “B were compared.”
# dairy cows = conditions: cited from earlier work; for milk production increased: milk adjusted to fat content 3.5%
# [5] = 1.5 mg s.c. twice daily from day 137 of gestation to littering
molecule,measurement,setting,value
"hGRF (1-29): form of human growth hormone releasing factor containing 29 amino acids, obtained after deletion of the C-terminal portion",milk production greater than that of the control ewes,"multiparous gravid ewes [1]; batch GRF1 (days 105 to 115 of gestation), fifth week of lactation",more than 23%
same,Milk production,"multiparous gravid ewes [1]; batch GRF1, week of lactation 1, FIG. 4, control 980 ± 70",1075 ± 50
same,Milk production,"multiparous gravid ewes [1]; batch GRF1, week of lactation 2, FIG. 4, control 950 ± 60",1090 ± 70
same,Milk production,"multiparous gravid ewes [1]; batch GRF1, week of lactation 3, FIG. 4, control 845 ± 50",1025 ± 60
same,Milk production,"multiparous gravid ewes [1]; batch GRF1, week of lactation 4, FIG. 4, control 760 ± 45",920 ± 60
same,Milk production,"multiparous gravid ewes [1]; batch GRF1, week of lactation 5, FIG. 4, control 720 ± 50",880 ± 50
same,Milk production,"multiparous gravid ewes [1]; batch GRF2, week of lactation 1, FIG. 5, control 1020 ± 50",1050 ± 60
same,Milk production,"multiparous gravid ewes [1]; batch GRF2, week of lactation 2, FIG. 5, control 1025 ± 60",1010 ± 50
same,Milk production,"multiparous gravid ewes [1]; batch GRF2, week of lactation 3, FIG. 5, control 975 ± 50",855 ± 50
same,Milk production,"multiparous gravid ewes [1]; batch GRF2, week of lactation 4, FIG. 5, control 925 ± 50",840 ± 40
same,Milk production,"multiparous gravid ewes [1]; batch GRF2, week of lactation 5, FIG. 5, control 860 ± 50",745 ± 60
same,Weight of the Lambs at 30 days,"multiparous gravid ewes [2]; batch GRF1+2: day 105 to 115 and day 137 to littering, 10 lambs",13 ± 0.66 kg
same,birth weight of the lambs versus control,"multiparous gravid ewes [2]; batch GRF1+2: day 105 to 115 and day 137 to littering, twin lambs n=12",substantially similar
same,Weight of the Lambs at 30 days,"multiparous gravid ewes [2]; batch GRF1: day 105 to 115 of gestation, 14 lambs",13.6 ± 0.5 kg
same,birth weight of the lambs versus control,"multiparous gravid ewes [2]; batch GRF1: day 105 to day 115 of gestation, twin lambs n=16",substantially similar; also recorded: of the same order
same,mean birth weight of the lambs,"multiparous gravid ewes [2]; batch GRF2: day 137 of gestation to littering, twin lambs n=12, control 2.91 kg",3.54 kg
same,Weight of the Lambs at 30 days,"multiparous gravid ewes [2]; batch GRF2: day 137 to littering, 12 lambs",14.73 ± 0.53 kg
same,excess of lamb growth at 30 days over lambs of control mothers,multiparous gravid ewes [2]; ewes treated between days 105 and 115 of gestation (GRF1),~11%
same,excess of lamb weight at 30 days over the controls,"multiparous gravid ewes [2]; mothers treated between days 137 and 147 of gestation (GRF2), corrected for birth weight",21%
same,birth weight of the lambs born of treated mothers,"gravid ewes [3]; batch B, n=20, 1.5 mg s.c. twice daily day 137 to littering, control batch A 3.61±0.14 kg",4.17 ± 0.13 kg
same,effect on dates of the lambing (parturition),gravid ewes [3]; in vivo,not modifying the dates of the lambing
same,discharge of growth hormone (GH),gravid ewes [4]; [5],of large magnitude
same,duration of the discharge of growth hormone after the subcutaneous injection,gravid ewes [4]; [5],approximately 5 hours
same,"GH response, day 146 versus day 138 of gestation","gravid ewes [4]; mean over 15 ewes, FIG. 1",magnified as the term of the pregnancy is approached
"bGH: bovine growth hormone obtained by genetic recombination (protein, UniProt P01246 27-217, looked up) Somatotropin: AFPAMSLSGLFANAVLRAQHLHQLAADTFKEFERTYIPEGQRYSIQNTQVAFCFSETIPAPTGKNEAQQKSDLELLRISLLLIQSWLGPLQFLSRVFTNSLVFGTSDRVYEKLKDLEEGILALMRELEDGTPRAGQILKQTYDKFDTNMRSDDALLKNYGLLSCFRKDLHKTETYLRVMKCRRFGEASCAF",milk production increased,dairy cows; 12.5 mg bGH per day,16%
same,nutritional efficiency (kg milk with 3.5% fat per kg dry matter ingested) increased,dairy cows; 12.5 mg bGH/day for a long period,13.8%
same,milk production increased,dairy cows; 25 mg bGH per day,19%
same,nutritional efficiency (kg milk with 3.5% fat per kg dry matter ingested) increased,dairy cows; 25 mg bGH/day for a long period,16.8%
same,milk production increased,dairy cows; 50 mg bGH per day,22%
same,nutritional efficiency (kg milk with 3.5% fat per kg dry matter ingested) increased,dairy cows; 50 mg bGH/day for a long period,15.3%
